Source: patent US11053213B2, “Pharmaceutical compounds” (ALMAC DISCOVERY LIMITED, priority 2016, dated 2021)

Columns and labels:
USP19 = USP19 (Homo sapiens (Human), UniProt O94966); experiment: USP19 activity assay (fluorescence polarisation, Ubiquitin-Lys-TAMRA substrate); format: biochemical; details: full-length USP19 2.5 nM, 30 min pre-incubation, Ub substrate 500 nM; average of at least two duplicate experiments
[1] = test system: panel of DUBs (24 USPs and 19 other DUBs); experiment: Selectivity profile against a panel of DUBs (Ub-Rh110 substrate, Ubiquigent); format: biochemical; details: fixed concentration of 100 μM
Procedure: FIG. 1 Overall selectivity profile of Example 124 against a panel of DUBs. Included in this screen were 24 USPs and 19 other DUBs (as indicated). Example 124 was screened at a fixed concentration of 100 μM using the Ub-Rh110 substrate (Ubiquigent). Residual activity is shown on the y-axis normalised to the no compound (DMSO) control.

Sequence of USP19 (O94966 whole entry): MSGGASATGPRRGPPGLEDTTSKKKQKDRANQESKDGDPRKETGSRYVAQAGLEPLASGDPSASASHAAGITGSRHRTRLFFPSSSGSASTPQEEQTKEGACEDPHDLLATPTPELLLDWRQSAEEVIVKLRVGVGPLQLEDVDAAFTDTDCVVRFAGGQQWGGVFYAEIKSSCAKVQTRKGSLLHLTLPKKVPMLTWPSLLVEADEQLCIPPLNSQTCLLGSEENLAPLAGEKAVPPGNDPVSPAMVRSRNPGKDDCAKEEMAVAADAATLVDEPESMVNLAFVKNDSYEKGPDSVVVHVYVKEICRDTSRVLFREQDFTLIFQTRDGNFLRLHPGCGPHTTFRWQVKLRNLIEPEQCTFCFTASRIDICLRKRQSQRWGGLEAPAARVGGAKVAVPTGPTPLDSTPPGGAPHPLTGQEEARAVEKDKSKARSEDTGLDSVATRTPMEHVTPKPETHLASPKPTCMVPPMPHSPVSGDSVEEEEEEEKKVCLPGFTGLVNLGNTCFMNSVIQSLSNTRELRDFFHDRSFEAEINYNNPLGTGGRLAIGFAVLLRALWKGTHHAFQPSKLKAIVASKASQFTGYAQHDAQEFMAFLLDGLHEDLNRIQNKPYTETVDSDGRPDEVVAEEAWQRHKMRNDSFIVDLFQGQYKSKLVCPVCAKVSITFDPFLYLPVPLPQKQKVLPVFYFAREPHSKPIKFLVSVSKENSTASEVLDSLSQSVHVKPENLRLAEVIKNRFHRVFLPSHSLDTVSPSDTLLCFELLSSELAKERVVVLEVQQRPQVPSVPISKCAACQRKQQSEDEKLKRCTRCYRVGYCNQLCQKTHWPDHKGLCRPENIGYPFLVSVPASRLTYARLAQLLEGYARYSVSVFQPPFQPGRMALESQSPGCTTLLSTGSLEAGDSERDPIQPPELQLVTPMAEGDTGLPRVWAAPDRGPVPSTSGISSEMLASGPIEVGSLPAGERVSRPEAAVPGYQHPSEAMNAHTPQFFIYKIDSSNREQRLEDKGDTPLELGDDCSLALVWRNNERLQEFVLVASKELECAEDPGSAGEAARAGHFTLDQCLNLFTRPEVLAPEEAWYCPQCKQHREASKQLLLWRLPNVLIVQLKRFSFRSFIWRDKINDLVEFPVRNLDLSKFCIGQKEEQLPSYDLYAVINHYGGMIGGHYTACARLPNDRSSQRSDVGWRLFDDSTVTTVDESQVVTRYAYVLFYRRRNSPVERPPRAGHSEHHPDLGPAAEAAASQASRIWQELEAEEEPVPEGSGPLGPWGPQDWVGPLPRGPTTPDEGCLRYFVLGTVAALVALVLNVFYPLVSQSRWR

IC50 (USP19): < 500 nM
Compound: C[C@H](CC1CCCCC1)C(=O)N1CC[C@@](O)(Cn2cc(C(=O)N3CCNCC3)c(-c3ccccc3)cc2=O)C(C)(C)C1 [Example 124, 1-(((S)-1-((R)-3-Cyclohexyl-2-methylpropanoyl)-4-hydroxy-3,3-dimethylpiperidin-4-yl)methyl)-4-phenyl-5-(piperazine-1-carbonyl)pyridin-2(1H)-one]
Overall selectivity profile (residual activity normalised to DMSO control) [1]: selectivity is demonstrated
